Ends that are not written are not given here.
Legend:
S. aureus AB94004 [1] = assay type: cell-based; settings: for MIC S.aureus, substance alone: controls of the competition assay (Figure 7C): untreated peptide, or LTA / LPS alone
Description: To confirm the results of the BLI titrations, 250 µg/mL of Kn2-7 or BmKn2 was mixed with an equal volume of 1 mg/mL LTA or LPS. Then, the MICs of Kn2-7 or BmKn2 mixed with LTA against S. aureus and E. coli were measured. […] The MICs of Kn2-7 and BmKn2 treated with LTA against S. aureus were 25 and 12.5 µg/mL, respectively.
A total of 250 µg/mL of each peptide solution was mixed with an equal volume of 1 mg/mL of the LTA or LPS solution. Then, the MICs of BmKn2 and Kn2-7 treated with LTA or LPS against S. aureus AB94004 and E. coli AB94012 were measured.

E. coli AB94012 [2] = experiment: Enzyme release assay (catalase); assay type: cell-based; settings: E. coli AB94012, 37°C; 0.9% saline negative control; Figure 4D
Description: (§1) Figure 4 Secondary structure and enzyme release assay of Kn2-7. (A) and (B) Secondary structure analysis of the Kn2-7 and BmKn2 peptides. (A) Circular dichroism spectra of 0.1 mg/mL of Kn2-7 in water, 30% TFE/H2O or 70% TFE/H2O. (B) Circular dichroism spectra of 0.1 mg/mL of BmKn2 in water, 30% TFE/H2O or 70% TFE/H2O. (C) and (D) Enzyme release assay. (C) S. aureus AB94004 treated with Kn2-7 or BmKn2 was harvested, and the catalase activities of the supernatants were measured; 0.9% saline was used as the negative control, and ampicillin sodium was used as the antibiotic control. (D) E. coli AB94012 treated with Kn2-7 or BmKn2 was harvested, and the catalase activities in the supernatants were measured; 0.9% saline was used as the negative control, and kanamycin was used as the antibiotic control.
(§2) Bacterial suspensions and serial-diluted peptides were mixed at a ratio of 4∶1 in different tubes with a final volume of 2 ml. The mixtures were then incubated at 37°C with continuous shaking. At each time point, 200 µl of the treated bacterial suspension was transferred to sterilized tubes. After centrifugation, the supernatants were transferred to a sterilized 1.5-ml tube, and catalase activity was measured with a Catalase Assay Kit (Beyotime, Jiangsu, China) using the method for measuring peroxidase activity.

S. aureus AB94004 [3] = experiment: Enzyme release assay (catalase); assay type: cell-based; settings: S. aureus AB94004, 37°C; 0.9% saline negative control; Figure 4C
Description: as §1, §2

E. coli AB94012 [4] = experiment: Bactericidal assay (time-killing); assay type: cell-based; settings: samples at 0, 5, 15, 30, 60 min, colony counts, average of three dishes
Description: Figure 5 Bactericidal assays of the Kn2-7 and BmKn2 peptides against S. aureus and E. coli AB94012. Set point indicates untreated bacteria, and 0 minutes was defined as the time of the first sample collection, which was immediately after mixing bacteria and Kn2-7 or BmKn2. The other samples were collected at 5 min, 15 min, 30 min or 60 min. All of the counts were the average of three dishes, and the experiment was repeated at least three times. (A) Time-killing curve of Kn2-7 against S. aureus AB94004. (B) Time-killing curve of BmKn2 against S. aureus AB94004. (C) Time-killing curve of Kn2-7 against E. coli AB94012.
Bactericidal curves for Kn2-7 and BmKn2 were determined against S. aureus AB94004 and E. coli AB94012. A 400 µl aliquot of the peptide solution was added to 1,600 µl of a bacterial suspension. At each time point, 200 µl of the treated bacterial suspension was transferred to a sterilized 1.5-ml tube. After centrifugation at 1,000×g for 5 min, the supernatant was removed, and the pellet was resuspended in 200 µl of LB medium. The bacterial suspensions were placed on agar plates and incubated at 37°C until viable colonies could be counted.

Biolayer interferometry = assay type: binding, S. aureus; settings: 10 µg/mL biotinylated peptide on biosensor tips, 500 µg/mL LTA, 10 mM HEPES pH 7.4, 0.14 M NaCl, 30°C
Description: Figure 7 Binding assay of Kn2-7 and LTA or LPS. (A) Interaction of 10 µg/ml of Kn2-7 with 500 µg/ml of LPS or 500 µg/mL of LTA. Curve A3 is LPS, curve B3 is LTA and curve C3 is buffer. (B) Interaction of 10 µg/mL of BmKn2 with 500 µg/mL of LPS or 500 µg/mL of LTA. Curve D3 is LPS, curve E3 is LTA and curve F3 is the buffer. (C) MICs of Kn2-7 and BmKn2 treated with LTA or LPS against S. aureus and E. coli.
Biolayer Interferometry (BLI) experiments were performed on OCT RED (FortéBio, Inc.). A total of 500 µg/mL of lipoteichoic acid from S. aureus (LTA, Sigma, L2515), lipopolysaccharides from E. coli (LPS, Sigma, L2880) or buffer (10 mM HEPES, pH 7.4 and 0.14 M NaCl) was dispensed into 96-well microtiter plates at a volume of 200 µl per well. The operating temperature was 30°C. Biosensor tips (FortéBio, Inc., Menlo Park, CA) were pre-wetted with the buffer for 60 seconds at baseline. Then, 10 µg/mL Biotin-Kn2-7 or Biotin-BmKn2 was loaded onto the biosensor tips for 900 seconds. Baseline 2 was subsequently established for 300 seconds. Dissociation of Kn2-7 or BmKn2 occurred for 900 seconds in the buffer. Data were generated automatically by the Octet® User Software (version 3.1) and were subsequently analyzed from the resultant text files using Excel 2000.

MRSA P1386 = experiment: Growth inhibitory assay (growth curves); assay type: cell-based, S. aureus; settings: measurements at 630 nm, 96-well plates; Figure 2B
Description: (§3) Figure 2 Gowth inhibitory activities of Kn2-7. (A) Growth curves of S. aureus AB94004 treated with Kn2-7, BmKn2 or antibiotics. (B) Growth curves of MRSA P1386 treated with Kn2-7, BmKn2 or antibiotics. (C) Growth curves of E. coli AB94012 treated with Kn2-7, BmKn2 or antibiotics.
(§4) The time growth curves of S. aureus and MRSA treated with BmKn2 or its derivatives were determined based on measurements taken at 630 nm at each time point. Different concentrations of peptide were added to the tested strains, which were cultured in 96-well plates using the same method as was used for determining the MIC.

E. coli AB94012 [5] = experiment: Growth inhibitory assay (growth curves); assay type: cell-based; settings: at a concentration of 6.25 µg/mL; Figure 2C
Description: as §3, §4

S. aureus AB94004 [6] = experiment: Growth inhibitory assay (growth curves); assay type: cell-based; settings: at a concentration of MICs; measurements at 630 nm, 96-well plates; Figure 2A
Description: as §3, §4

FIKRIARLLRKIF [Kn2-7]
MIC S.aureus, substance alone (S. aureus AB94004 [1]): 3.13 µg/mL | Catalase activity of the supernatant over time (E. coli AB94012 [2]): nearly the same high enzymatic activity at each time point | Catalase activity of the supernatant over time (S. aureus AB94004 [3]): almost the same catalase activity at each time point | Bactericidal effect (time-killing curve) (E. coli AB94012 [4]): able to kill E. coli AB94012 rapidly | Binding to LTA (BLI) (Biolayer interferometry): bound strongly | Growth inhibition of MRSA P1386 (growth curve) (MRSA P1386): inhibited the growth of MRSA P1386 completely | Growth inhibition of E. coli AB94012 (growth curve) (E. coli AB94012 [5]): inhibited the growth of E. coli AB94012 | Growth inhibition of S. aureus (growth curve) (S. aureus AB94004 [6]): inhibited the growth of S. aureus completely

FIGAIARLLSKIF-NH2 [BmKn2]
MIC S.aureus, peptide treated with LPS (S. aureus AB94004 [1]; 250 µg/mL peptide mixed with equal volume of 1 mg/mL LPS): 6.25 µg/mL | MIC S.aureus, peptide treated with LTA (S. aureus AB94004 [1]; 250 µg/mL peptide mixed with equal volume of 1 mg/mL LTA): 12.5 µg/mL | MIC S.aureus, substance alone (S. aureus AB94004 [1]): 6.25 µg/mL | Catalase activity of the supernatant over time (E. coli AB94012 [2]): low catalase activity at each time point | Catalase activity of the supernatant over time (S. aureus AB94004 [3]): almost the same catalase activity at each time point | Bactericidal effect (time-killing curve) (E. coli AB94012 [4]): not able to kill E. coli AB94012 | Binding to LTA (BLI) (Biolayer interferometry): bound strongly | Growth inhibition of MRSA P1386 (growth curve) (MRSA P1386): inhibited the growth of MRSA P1386 completely | Growth inhibition of E. coli AB94012 (growth curve) (E. coli AB94012 [5]): had no effect against E. coli AB94012 | Growth inhibition of S. aureus (growth curve) (S. aureus AB94004 [6]): inhibited the growth of S. aureus completely

Reference: paper PMC3390344, “Antibacterial Activity and Mechanism of a Scorpion Venom Peptide Derivative In Vitro and In Vivo” (PLoS ONE, 2012)
